Measurements from patent publication US11371013B2, “Culture medium composition and method of culturing cell or tissue using thereof” (Nissan Chemical Industries, Ltd., priority 2012, dated 2022).

Key:
HepG2 cells [1] = experiment: Toxicity test of compound to hepatocytes: lactic acid dehydrogenase (LDH) activity measurement; assay type: cell-based, human; details: 1 day, DAG 0.015%
Description: (§1) This aqueous solution was sterilized at 121° C. for 20 min in an autoclave. On the other hand, HepG2 cells was mixed with DMEM medium (manufactured by WAKO) at 100000 cells/mL, and the cell suspension was dispensed to the wells of a 96-well flat bottom ultra low adhesion surface microplate (manufactured by Corning Incorporated, #3474) at 100 μL/well. […] Successively, this plate was cultured by being stood still in a CO2 incubator (37° C., 5% CO2) for 1 day.
To the culture medium (100 μL) after culturing for 1 day was added DMEM medium (manufactured by WAKO, 100 μL), and the plate was centrifuged by 440G for 15 min. The supernatant (100 μL) was dispensed to a 96-well titer plate (manufactured by Corning Incorporated), a reaction mixture (100 μL) in a cytotoxicity detection kit (manufactured by Roche Applied Science) was added, and the mixture was stood under shading at room temperature for 30 min. Successively, according to the protocol of the above-mentioned kit, the absorbance at 490 nm (reference; 600 nm) was measured by an absorbance spectrometer (manufactured by Molecular Devices, SPECTRA MAX 190), whereby the rate of the disordered cell, that is, cell disorder rate (%), was measured.

HepG2 cells [2] = experiment: Toxicity test of compound to hepatocytes: number of viable cells (Cell Titer-Glo); assay type: cell-based, human; details: 1 day, DAG 0.015%, no addition = 1
Description: as §1
The culture medium (50 μL) after culturing for 1 day was dispensed to a 96-well titer plate (manufactured by Corning Incorporated), to this culture medium was added a Cell Titer-Glo (registered trade mark) reagent (manufactured by Promega, 50 μL), and the mixture was incubated at room temperature for 10 min. The luminescence intensity was measured by a multiplate reader is (manufactured by Molecular Devices, FlexStation3) to measure the number of viable cells.

[3] = State of medium composition (liquid/solid); assay type: physicochemical
Description: (§2) This aqueous solution was allowed to cool to room temperature with stirring, and sterilized at 121° C. for 20 min in an autoclave. […] The viscosity of the medium compositions was measured using an E type viscometer (manufactured by Toki Sangyo Co., Ltd., Viscometer TVE-22L, standard roter 1° 34′×R24) under 37° C. condition at 100 rpm for 5 min.
DMEM/F-12 medium (manufactured by Aldrich, 100 mL) was placed in a 200 mL pear-shaped flask, and methylcellulose (M0387, manufactured by Aldrich, […]) was added. The mixture was stirred while cooling in an ice bath to dissolve methylcellulose. Using this solution, medium compositions added with the aqueous methylcellulose solution at a final concentration of 0.1, 0.3, 0.6 or 1.0% (w/v) were prepared.
A 10-fold concentration of DMEM/F-12 medium (manufactured by Aldrich, 1 mL), a buffer for reconstitution (manufactured by Nitta Gelatin Inc., 1 mL) and pure water (1.5 mL) were added to 0.3% cell matrix type I-A (manufactured by Nitta Gelatin Inc., 6.5 mL), and the mixture was stirred in an ice to give a 0.2% collagen-containing medium. Similarly, medium compositions added with collagen at a final concentration of 0.01, 0.05, 0.1 or 0.2% (w/v) were prepared.
(§3) The final concentration of polysaccharide was set to 0.1% (w/v) for xanthan gum, sodium alginate, locust bean gum, 0.2% (w/v) for methylcellulose, and 0.05% (w/v) for K-carageenan and diutan gum. The state of each medium composition and the viscosity measured by a method similar to that in Analysis Example 1 are shown in Tables 11-16.

[4] = Viscosity measurement of medium composition (E type viscometer); assay type: physicochemical; details: 37°C, 100 rpm
Description: The viscosity of the liquid containing the structure can be measured, for example, by the method described in the below-mentioned Examples. Specifically, it can be measured under 37° C. conditions and using an E-type viscosity meter (manufactured by Toki Sangyo Co., Ltd., TV-22 type viscosity meter, model: TVE-22L, corn roter: standard roter 1° 34′×R24, rotation number 100 rpm).
as §2
The medium compositions prepared above were subjected to a suspension test of HeLa cell spheres and a viscosity measurement, in the same manner as with the deacylated gellan gum-containing medium. The viscosity of 1.0% (w/v) methylcellulose was measured at 50 rpm due to the measurement range of the apparatus.
In the same manner as in Experimental Example 2, spheres of HeLa cells were formed, and several tens of the spheres were added to each medium (1 mL) prepared above, the mixture was stood still at 37° C. for 1 hr, and the suspended state of the sphere cells was visually observed. […] Furthermore, it was confirmed that addition of an equal amount of the medium to the cell suspension and centrifugation (300 to 400G, 5 min) thereof result in sedimentation and recovery of the spheres of HeLa cells. The suspended state of the spheres of HeLa cells cultured in the medium composition of the present invention is each shown in FIG. 11.
as §3

Molecule | cell disorder rate (HepG2 cells [1]; 20 μM) [%] | cell disorder rate (HepG2 cells [1]; 40 μM) [%] | cell disorder rate (HepG2 cells [1]; 60 μM) [%] | cell disorder rate (HepG2 cells [1]; 100 μM) [%] | relative cell number (HepG2 cells [2]; 20 μM) | relative cell number (HepG2 cells [2]; 40 μM) | relative cell number (HepG2 cells [2]; 60 μM) | relative cell number (HepG2 cells [2]; 100 μM) | state ([3]; 0.01% (w/v) in DMEM/F-12) | state ([3]; 0.05% (w/v) in DMEM/F-12) | state ([3]; 0.1% (w/v) in DMEM/F-12) | state ([3]; 0.2% (w/v) in DMEM/F-12) | viscosity ([4]; 0.01% (w/v) in DMEM/F-12) [mPa · s] | viscosity ([4]; 0.05% (w/v) in DMEM/F-12) | viscosity ([4]; 0.1% (w/v) in DMEM/F-12) | viscosity ([4]; 0.2% (w/v) in DMEM/F-12)
Cc1c(C)c2c(c(C)c1O)CCC(C)(COc1ccc(CC3SC(=O)NC3=O)cc1)O2 (stereo not shown) [Troglitazone] | 2.68 | 14.7 | 22.5 | 60.7 | 0.68 | 0.50 | 0.48 | 0.39 |  |  |  |  |  |  |  | 
collagen |  |  |  |  |  |  |  |  | liquid | liquid/solid | solid (gel) | solid (gel) | 1.18 | unmeasurable | unmeasurable | unmeasurable
